# Source: patent US20220056019A1, “FARNESOID X RECEPTOR AGONISTS AND USES THEREOF” (Metacrine, Inc., priority 2018, published 2022)
# Biological target: T1, hFXR (Homo sapiens, UniProt Q96RI1)
# T1 construct: expressed in transfected cells; host or cells: CV-1 cells
# T1 sequence (Q96RI1 1-486): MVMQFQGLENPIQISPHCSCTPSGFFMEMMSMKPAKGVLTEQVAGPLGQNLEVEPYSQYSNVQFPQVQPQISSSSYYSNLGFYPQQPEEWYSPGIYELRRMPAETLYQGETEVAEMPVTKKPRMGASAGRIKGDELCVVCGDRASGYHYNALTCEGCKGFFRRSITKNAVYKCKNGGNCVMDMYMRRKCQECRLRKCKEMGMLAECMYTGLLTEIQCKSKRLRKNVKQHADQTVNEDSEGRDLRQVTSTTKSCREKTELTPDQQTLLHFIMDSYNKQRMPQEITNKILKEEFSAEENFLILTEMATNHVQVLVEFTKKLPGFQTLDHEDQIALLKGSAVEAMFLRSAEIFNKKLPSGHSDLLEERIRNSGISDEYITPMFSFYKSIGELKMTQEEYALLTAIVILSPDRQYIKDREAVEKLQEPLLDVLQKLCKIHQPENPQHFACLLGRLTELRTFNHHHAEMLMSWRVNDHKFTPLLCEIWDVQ
# T1 sequence (P19793 1-462 partner): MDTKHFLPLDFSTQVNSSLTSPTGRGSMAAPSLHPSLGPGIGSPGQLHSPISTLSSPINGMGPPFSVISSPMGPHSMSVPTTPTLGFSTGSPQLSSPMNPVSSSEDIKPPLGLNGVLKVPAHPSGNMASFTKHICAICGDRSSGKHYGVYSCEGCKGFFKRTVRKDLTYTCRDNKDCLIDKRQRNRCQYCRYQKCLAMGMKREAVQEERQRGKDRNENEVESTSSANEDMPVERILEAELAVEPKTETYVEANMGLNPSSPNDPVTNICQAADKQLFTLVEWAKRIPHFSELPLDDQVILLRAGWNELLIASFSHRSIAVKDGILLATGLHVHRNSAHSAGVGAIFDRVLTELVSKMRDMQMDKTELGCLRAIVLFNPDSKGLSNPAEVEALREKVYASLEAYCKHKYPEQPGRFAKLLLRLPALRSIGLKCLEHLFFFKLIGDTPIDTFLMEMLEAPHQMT
# Assay: In Vitro FXR Assay (TK): TK-ECRE-luc reporter in transfected CV-1 cells
# Format: cell-based
# Details: 18 hrs incubation, luminescence
# Method in brief: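 CV-1, DMEM/10% charcoal-stripped FBS, 37 °C 5% CO2. Transfection O/N: hFXR + hRXR + TK-ECRE-luc + pCMX-YFP. Cpds (DMSO serial dil.) 18 h; lyse, read luminescence.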
row,SMILES,EC50 [nM]
1,"COc1ccc(C23CCC(CN(c4cc(-c5cnn(C(C)C)c5)ccn4)C(=O)[C@H]4CC[C@H](OC(=O)NCCCO)CC4)(CC2)CC3)cc1C [Compound 4.07, 4-((4-(1-Isopropyl-1H-pyrazol-4-yl)pyridin-2-yl)((4-(4-methoxy-3-methylphenyl)bicyclo [2.2.2]octan-1-yl)methyl)carbamoyl)cyclohexyl (3-hydroxypropyl)trans-carbamate]",≤ 50
2,"CNC(=O)O[C@H]1CC[C@H](C(=O)N(CC23CCC(c4ccc(OC)c(C)c4)(CC2)CC3)c2cc(-c3cnn(C(C)C)c3)ccn2)CC1 [Compound 4.03, 4-((4-(1-Isopropyl-1H-pyrazol-4-yl)pyridin-2-yl)((4-(4-methoxy-3-methylphenyl)bicyclo [2.2.2]octan-1-yl)methyl)carbamoyl)cyclohexyl trans-methylcarbamate]",≤ 50
3,"COc1ccc(C23CCC(CN(c4cc(-c5cnc(C(C)C)s5)ccn4)C(=O)[C@H]4CC[C@H](OC(=O)N5CC(OCCO)C5)CC4)(CC2)CC3)cc1C [Compound 4.38, 4-((4-(2-Isopropylthiazol-5-yl)pyridin-2-yl)((4-(4-methoxy-3-methylphenyl)bicyclo[2.2.2]octan-1-yl)methyl)carbamoyl) (trans-cyclohexyl) 3-(2-hydroxyethoxy)azetidine-1-carboxylate]",≤ 50
4,"COc1ccc(C23CCC(CN(c4cc(-c5coc(C(C)C)n5)ccn4)C(=O)[C@H]4CC[C@H](OC(=O)N5CC(S(C)(=O)=O)C5)CC4)(CC2)CC3)cc1C [Compound 23.03, 4-((4-(2-Isopropyloxazol-4-yl)pyridin-2-yl)((4-(4-methoxy-3-methylphenyl)bicyclo[2.2.2]octan-1-yl)methyl)carbamoyl)(trans-cyclohexyl) 3-(methylsulfonyl)azetidine-1-carboxylate]",≤ 50
5,"COc1ccc([C@H]2CC[C@H](CN(c3cc(-c4coc(C5CC5)n4)ccn3)C(=O)[C@H]3CC[C@H](OC(=O)N4CCN(C)CC4)CC3)CC2)cc1Cl [Compound 2.07, trans-4-(((trans-4-(3-Chloro-4-methoxyphenyl)cyclohexyl)methyl)(4-(2-cyclopropyloxazol-4-yl)pyridin-2-yl)carbamoyl)cyclohexyl 4-methylpiperazine-1-carboxylate]",≤ 50
6,"COc1ccc([C@H]2CC[C@H](CN(c3cccc(-c4coc(C5CC5)n4)c3)C(=O)[C@H]3CC[C@H](C(C)(C)O)CC3)CC2)nc1C [Compound 19, trans-N-(3-(2-Cyclopropyloxazol-4-yl)phenyl)-4-(2-hydroxypropan-2-yl)-N-((trans-4-(5-methoxy-6-methylpyridin-2-yl)cyclohexyl)methyl)cyclohexanecar-boxamide]",≤ 50
7,"COc1ccc(C23CCC(CN(c4cccc(-c5cnn(C(C)C)c5)c4F)C(=O)[C@H]4CC[C@H](OC(=O)N5CC(O)C5)CC4)(CC2)CC3)cc1C [Compound 25.04, 4-((2-Fluoro-3-(1-isopropyl-1H-pyrazol-4-yl)phenyl)((4-(4-methoxy-3-methylphenyl)bicyclo[2.2.2]octan-1-yl)methyl)carbamoyl)cyclohexyl trans-3-hydroxyazetidine-1-carboxylate]",≤ 50
8,"COc1ccc(C23CCC(CN(c4cc(-c5coc(C6CC6)n5)ccn4)C(=O)[C@H]4CC[C@H](NC(C)=O)CC4)(CC2)CC3)cc1C [Compound 9.09, (trans)-4-Acetamido-N-(4-(2-cyclopropyloxazol-4-yl)pyridin-2-yl)-N-((4-(4-methoxy-3-methylphenyl)bicyclo[2.2.2]octan-1-yl)methyl)cyclohexanecarboxamide]",≤ 50
9,"COc1ccc(C23CCC(CN(c4cc(-c5cnn(C(C)C)c5)ncn4)C(=O)[C@H]4CC[C@H](OC(=O)N5CC(CO)C5)CC4)(CC2)CC3)cc1C [Compound 23.20, 4-((6-(1-Isopropyl-1H-pyrazol-4-yl)pyrimidin-4-yl)((4-(4-methoxy-3-methylphenyl)bi-cyclo[2.2.2]octan-1-yl)methyl)carbamoyl)(trans-cyclohexyl) 3-(hydroxymethyl)azetidine-1-carboxylate]",≤ 50
10,"COCCNC(=O)O[C@H]1CC[C@H](C(=O)N(CC23CCC(c4ccc(OC)c(C)c4)(CC2)CC3)c2cc(-c3cnn(C(C)C)c3)ccn2)CC1 [Compound 4.49, 4-((4-(1-Isopropyl-1H-pyrazol-4-yl)pyridin-2-yl) ((4-(4-methoxy-3-methylphenyl)bicyclo [2.2.2]octan-1-yl)methyl)carbamoyl)cyclohexyl(2-methoxyethyl)trans-carbamate]",≤ 50
11,"COc1ccc([C@H]2CC[C@H](CN(c3cccc(-c4cnn(C(C)C)c4)c3)C(=O)[C@H]3CC[C@H](NC(=O)OC4CCN(C)CC4)CC3)CC2)cc1C [Compound 6.08, 1-Methylpiperidin-4-yl (trans-4-((3-(1-isopropyl-1H-pyrazol-4-yl)phenyl)((trans-4-(4-methoxy-3-methylphenyl)cyclohexyl)meth-yl)carbamoyl)cyclohexyl)carbamate]",50 to 1000
12,"COc1ccc(C23CCC(CN(c4cncc(-c5cnn(C(C)C)c5)n4)C(=O)[C@H]4CC[C@H](OC(=O)N5CC(O)C5)CC4)(CC2)CC3)cc1C [Compound 25.28, 4-((6-(1-Isopropyl-1H-pyrazol-4-yl)pyrazin-2-yl)((4-(4-methoxy-3-methylphenyl)bicyclo[2.2.2]octan-1-yl)methyl)carbamoyl)cyclohexyl trans-3-hydroxyazetidine-1-carboxylate]",≤ 50
13,"COc1ccc([C@H]2CC[C@H](CN(c3cc(-c4cnn(C(F)(F)F)c4)ccn3)C(=O)[C@H]3CC[C@H](OC(=O)NCC(C)(C)O)CC3)CC2)cc1C [Compound 2.58, trans-4-((((trans)-4-(4-Methoxy-3-methylphenyl)cyclohexyl)methyl) (4-(1-(trifluoromethyl)-1H-pyrazol-4-yl)pyridin-2-yl)carbamoyl)cyclohexyl (2-hydroxy-2-methylpropyl)carbamate]",50 to 1000
14,"COc1ccc([C@H]2CC[C@H](CN(c3cccc(-c4cnn(C(C)C)c4)c3)C(=O)[C@H]3CC[C@H](CN)CC3)CC2)cc1C [Compound 11, (trans)-4-(Aminomethyl)-N-(3-(1-isopropyl-1H-pyrazol-4-yl)phenyl)-N-(((trans)-4-(4-methoxy-3-methylphenyl)cyclohexyl)methyl)cyclohexanecarboxamide]",1000 to 10000
15,"COc1ncc(C23CCC(CN(c4cc(-c5cnn(C(C)C)c5)ccn4)C(=O)[C@H]4CC[C@H](OC(=O)N5CC(O)C5)CC4)(CC2)CC3)cc1C [Compound 26, 4-((4-(1-Isopropyl-1H-pyrazol-4-yl)pyridin-2-yl)((4-(6-methoxy-5-methylpyridin-3-yl)bicyclo[2.2.2]octan-1-yl)methyl)carbamoyl)cyclohexyl trans-3-hydroxyazetidine-1-carboxylate]",≤ 50
16,"COc1ccc(C23CCC(CN(c4cc(-c5coc(C6CC6)n5)ccn4)C(=O)[C@H]4CC[C@H](NC(=O)CO)CC4)(CC2)CC3)cc1C [Compound 9.11, (trans)-N-(4-(2-Cyclopropyloxazol-4-yl)pyridin-2-yl)-4-(2-hydroxyacetamido)-N-((4-(4-methoxy-3-methylphenyl)bicyclo[2.2.2]octan-1-yl)methyl)cyclohexanecarboxamide]",≤ 50
17,"COc1ccc([C@H]2CC[C@H](CN(c3cccc(-c4cnn(C(C)C)c4)c3)C(=O)[C@H]3CC[C@H](OC(=O)N4CCN(C)CC4)CC3)CC2)cc1C#N [Compound 5.08, trans-4-((((trans)-4-(3-Cyano-4-methoxyphenyl)cyclohexyl)methyl)(3-(1-isopropyl-1H-pyrazol-4-yl)phenyl)carbamoyl)cyclohexyl4-methylpiperazine-1-carboxylate]",≤ 50
18,"COc1ccc(C23CCC(CN(c4cc(-c5cnn(C(C)C)c5)c(F)cn4)C(=O)[C@H]4CC[C@H](OC(=O)N5CC(C#N)C5)CC4)(CC2)CC3)cc1C [Compound 25.12, 4-((5-Fluoro-4-(1-isopropyl-1H-pyrazol-4-yl)pyridin-2-yl)((4-(4-methoxy-3-methylphenyl)bicyclo[2.2.2]octan-1-yl)methyl)carbamoyl)cyclohexyl trans-3-cyanoazetidine-1-carboxylate]",≤ 50
19,"COc1ccc([C@H]2CC[C@H](CN(c3cc(-c4cnn(C(C)C)c4)ccn3)C(=O)[C@H]3CC[C@H](OC(=O)N4CC(OC)C4)CC3)CC2)cc1C [Compound 2.18, trans-4-((4-(1-Isopropyl-1H-pyrazol-4-yl)pyridin-2-yl) ((trans-4-(4-methoxy-3-methylphenyl)cyclohexyl)methyl)carbamoyl) cyclohexyl 3-methoxyazetidine-1-carboxylate]",≤ 50
